Counter-ions that a name gives are not always drawn.

Assay [1] concerns human pancreatic cancer cell line MIA-PaCa2. Kind of assay: Western blot/ELISA of caspase 3 cleavage, LC3 and p62. The following applies: ChQ 5 μM added to ADI-PEG 0.3 μg/mL, 72 hours. It counts as cell-based. Here is the method:
The human pancreatic cancer cell line MIA-PaCa2 was treated in vitro and in vivo with pegylated arginine deiminase (ADI-PEG) alone or in the presence of ChQ. Cell death was measured by propidium iodide (PI)-FACS to determine sub-G1 DNA content, and apoptosis was evaluated by Annexin V-PI flow cytometry. Cleavage of caspase 3 was evaluated by western blots and ELISA. Autophagy was measured by evaluating the expression levels of LC3 and […] p62 (p62) by western blots and ELISA.
In order to determine if ADI induces apoptosis and autophagy in a caspase dependent manner, cells were incubated with either ADI-PEG or a combination of ADI-PEG and ZVAD-fmk, a pan-caspase inhibitor.
The levels of p62, LC3B-I, and LC3B-II were measured by western blot analysis in order to examine autophagic flux.
In general terms: A western blot detects proteins with antibodies after separation by electrophoresis.

For the next assay, the system named is SK-LC-13. The assay can be described thus: Western blot of autophagy-related protein LC3-II. It counts as cell-based, human. The following applies: 24 hour incubation. From the text: Following washing, the membranes were then probed with the appropriate secondary antibody before proteins were finally visualized using ECL reagent (Perkin-Elmer, Fremont Calif., USA).
An assay for the formation of the autophagy-related protein LC3-II assessed if treatment with ADI-PEG 20 was able to induce cellular autophagy in SCLC. […] Chloroquine is a known inhibitor of autophagy that disrupts normal lysosomal functions, and thus results in an increase in the cellular level of LC3-II.

The next assay deals with SK-LC-13 cells. The assay can be described thus: FACS analysis of apoptosis by sub-G1 DNA content (propidium iodide). It counts as cell-based, human. The settings on record: 25 nM, 72 h. On the procedure: Apoptosis was measured by FACS of propidium-iodide-stained cells as detailed by Riccardi et al (Riccardi and Nicoletti, Nat Protoc 1(3):1458-1461, 2006). Cells were plated in 24-well plates and treated with ADI-PEG 20 for […]. Cells were then harvested, washed and fixed in 70% ethanol. DNA was then stained using 20 μg ml^−1 propidium iodide containing 10 μgml^−1 DNAse-free RNAse A (Sigma-Aldrich). Cells were then read on a BD FACSCalibur (BD Biosciences) and analyzed using Flow Jo Software (Tree Star, Ashland, Oreg., USA).
In order to determine the possible mechanism of the antiproliferative effects of ADI-PEG 20 a FACS analysis of apoptosis by sub-G1 DNA content was performed. Cells were treated for 72 h before the analysis was performed.
Background: Flow cytometry measures light scatter and fluorescence of single cells or particles in a stream.

For `CCN(CCO)CCCC(C)Nc1ccnc2cc(Cl)ccc12` (stereo not drawn) [ChQ, hydroxychloroquine], in assay [1], the ADI induced apoptosis result is given as “enhanced ADI induced apoptosis”; the “LC3B-I and LC3B-II” value is “increase in the build up of both LC3B-I and LC3B-II”; the autophagic flux result was “diminished autophagic flux”; the “level of p62” value is “increase in the level of p62”.
On to `CCN(CC)CCCC(C)Nc1ccnc2cc(Cl)ccc12` (stereo not drawn) [chloroquine, reference compound], for which the “cellular level of LC3-II” value with SK-LC-13 is “very robust expression of LC3-II”.
Take `CC[C@@]1(O)C(=O)OCc2c1cc1n(c2=O)Cc2cc3c(CN(C)C)c(O)ccc3nc2-1` [topotecan, Topotecan hydrochloride, reference compound]: the “cells in apoptosis (sub-G1 DNA content)” value in the assay with SK-LC-13 cells is reported as “around 45%”.

The values are drawn from US9333268B2, “Methods of treatment with arginine deiminase” (Polaris Group, priority 2012, dated 2016).
